Assay results: patent US5747482A, “Methods and compositions to inhibit keratinocyte proliferation” (priority 1996, dated 1998)

Experiments:
keratinocyte cells = type: cell-based, human; settings: keratinocytes, 48 h, 500 µM
Description: (§1) Adult human keratinocytes from pooled donor skin were obtained from commercial sources (Cascade Biologics, Portland, Oreg., U.S.A.) and placed in 150 cm^2 bottom area culture flasks using culture medium 154 supplemented with HKGS (about 1%). At 80% confluency, cells were harvested with trypsin and cryopreserved until required.
Culture was renewed for a further 24 hours. At this time, media were removed and discarded, and the cells lysed with 200 μL/well of the solution provided in the Cell Death Detection Kit ELISA Plus (Boehringer Mannheim Biochemicals, Indianapolis, Ind., U.S.A., catalogue number 1774425). Aliquots of the lysate (20 μL) from each of 2 or 3 wells were assayed for nucleosomal enrichment following the kit instructions.
The evaluation of apoptosis of keratinocytes was conducted to determine the relative affect on apoptosis achieved by gallium maltol, gallium nitrate and maltol. Specifically, keratinocyte cells were seeded in 12 well plates seed using culture medium 154. Cultures were continued for 4 days and the medium was changed to medium 154 with 1.2 mM Ca^+2 either without supplement or with one of the following supplements:
1. gallium maltol at a final concentration of 5×10^-4 M;
2. gallium nitrate at a final concentration of 5×10^-4 M;
3. maltol at a concentration of 15×10^-4 M; and
4. CAM at a concentration of 1×10^-5 M.
Three (3) wells were used in each group. The final amount of medium was 300 μL in each well. Culture was continued for 2 days. Bars represent absorbance at 405 nm minus the absorbance at 492 nm.

Keratinocytes = experiment: Comparison of keratinocyte growth inhibition by gallium maltol, gallium nitrate and maltol, Example 3; type: cell-based, human; settings: 1×10^-4 M, 9 days, high Ca^+2 medium; FIG. 3
Text: as §1
At the start of the experiments, the required number of vials of keratinocytes was thawed, and the keratinocytes were placed in culture in 24 well plates at about 2,500 cells/cm^2 using the same culture medium as described above. After 24 hours (to allow attachment), the medium was changed to fresh 154 supplemented with HKGS (about 1%) and gallium maltol. Specifically, the fresh medium was prepared by addition of a sufficient amount of a stock solution to provide for six different compositions having a final gallium concentration of 10^-4 M, 10^-5 M, 10^-6 M, 10^-8 M, 10^-10 M, and 10^-12 M. The stock solution was prepared by adding 22.25 mg of gallium maltol to 50 mL of 154 medium and then passing the solution through a 0.2 μm filter and storing at 4° C.
When control cells were about 40% confluent (generally at 4-5 days in culture, all media were removed by aspiration, keratinocyte growth was assayed by crystal violet staining and conversion to cell numbers as described by Wilkinson, et al.^11. Specifically, cell layers rinsed in PBS, which was also aspirated, and 4 drops of crystal violet solution added to each well. The crystal violet solution was prepared by dissolving crystal violet (Fisher Scientific) in PBS:formaldehyde:ethanol (67:3:30%) to give a 0.5 w/v solution. A blank 24-well plate was treated similarly.
Keratinocytes were cultured in 24-well plates for 9 days in the manner described above in Example 2. […]
The cells were then cultured and subsequently evaluated for inhibition of keratinocyte proliferation in the manner described above.

Cc1occc(=O)c1[O-].Cc1occc(=O)c1[O-].Cc1occc(=O)c1[O-].[Ga+3] [gallium maltol, neutral 3:1 gallium complex of maltol]
increase in apoptosis compared to control (keratinocyte cells): ~19 fold | inhibition of keratinocyte proliferation (Keratinocytes): about 94%
